The results in this text go back to patent publication US20150307846A1, “GROWTH FACTOR COCKTAIL TO ENHANCE OSTEOGENIC DIFFERENTIATION OF MESENCHYMAL CELLS” (University of Pennsylvania, priority 2012, published 2015).

What all share (format): cell-based
The test system of assay [1] is human periosteum derived cells (hPDCs). In words: ALP/Alizarin Red staining of calcium deposits (mineralization) on hPDCs. As to conditions: hPDCs after OM and TGFβ1 one week, then 4 days. An excerpt:
FIG. 9: Gene expression of early (A) and late (B) bone markers in hPDCs treated with GM, OM or GM/OM supplemented with a growth factor mix (GF) containing TNFα, EGF, TGFβ1 and IL6. C) ALP staining of hPDCs that were stimulated with OM and TGFβ1 for one week followed by GM with one factor in the absence or presence of ascorbic acid for 2 days. D) ALP/Alizarin Red staining to stain calcium deposits on hPDCs pre-treated with OM and TGFβ1 for one week followed by GM with six minus one factors for four days in the absence or presence of ascorbic acid.
To overcome the inhibitory effect of OM on later stages of osteoblastogenesis, we considered to explore a two stage protocol wherein hPDCs were treated with OM and TGFβ1 to stimulate proliferation and ALP activity. After six days, medium was changed to growth medium supplemented with six factors (ascorbic acid, TNFα, IL6, EGF, Ca, Pi) minus one factor for 4 days. At this stage, ascorbic acid was included as a factor, because it promoted ALP activity (FIG. 9C) and mineralization (FIG. 9D) in vitro. […] Gene expression levels of RUNX2 were decreased when ascorbic acid was omitted from the mix. […] Furthermore, EGF, calcium and phosphate were required for DLX5 transcription, but at the used concentrations, calcium and phosphate decreased iBSP mRNA levels (FIG. 8C).

Assay [2] shares this test system. In words: Gene expression of bone markers in hPDCs in 2D culture (Taqman PCR). As to conditions: for iBSP mRNA levels: at the used concentrations (Ca 6 mM, Pi 4 mM). On the procedure: Same experimental design as in A. C) Identification of factors involved in osteoblast maturation. hPDCs were treated with OM and TGFβ1 for 6 days, followed by stimulation with GM (negative control), GM containing six factors or GM supplement with six minus one factor for 4 days. The factors are ascorbic acid (Asc. Ac., 57 μM), TNFα (50 ng/ml), IL6 (10 ng/ml), EGF (20 ng/ml), Ca (6 mM) and Pi (4 mM). To evaluate osteoblast maturation, gene expression of RUNX2, OSX, DLX5, iBSP, OC and RANKL is measured with Taqman PCR. […] D) Gene expression of osteoblast markers in hPDCs treated with OM and TGFβ1 for one week followed by GM supplemented with a growth factor mix (GF) containing ascorbic acid (57 μM), EGF (20 ng/ml), IL6 (10 ng/ml), Ca (6 mM), and Pi (4 mM) (“GF+C6P4”) or the same mix with reduced Ca (3 mM) and Pi (2 mM) ions (“GF+C3P2”). Gene expression is expressed as fold increase as compared to the GM condition. (n=3, error bars: standard deviations, *p≦00.05, Mann-Whitney U test). E) Gene expression of osteoblast markers in hPDCs treated with OM/TGFβ1 for 10 days, or with GM supplemented with ascorbic acid, EGF, IL6, C3P2 for 10 days (“EGF/IL6/C3P2”), or sequential stimulation with OM/TGFβ1 for 6 days followed by GM supplemented with ascorbic acid, EGF, IL6, C3P2 (“EGF/IL6/C3P2”) for 4 days. Gene expression is expressed as fold increase as compared to hPDCs cultured in OM/TGFβ1 (n=3, error bars: standard deviations, *p≦00.05, Mann-Whitney U test).
Cell culture. Periosteum was harvested from four patients (male/female/age) and periosteal cells were enzymatically released from the matrix. Tissue culture plastic adherent cells were expanded in DMEM medium supplemented with 10% fetal bovine serum as described previously (6). For in vitro osteogenic differentiation assays, passage 6 to passage 9 hPDCs (pool of four different donors) were seeded at 3000 cells/cm^2 in either 96-well plates to assess proliferation and alkaline phosphatase activity or in the middle eight wells of a 24-well plate for quantifying gene expression.
Medium was changed every other day. Supplemental factors were TNFα, IL6 (R&D Systems, USA), TGFβ1 (Stem Cell Research, USA), Ascorbic Acid (Sigma,USA), Ca and Pi (SigmaUSA). Calcium and phosphate ion working solutions were prepared as described in (7).
Quantitative PCR. Complementary DNA (cDNA) was obtained by reverse transcription of […] of total RNA with Oligo (dT)20 as primer (Superscript Ill; Invitrogen, Merelbeke, Belgium). Sybr Green PCR was performed in 10 pl reaction in a Rotor-Gene-Q (Qiagen) with following protocol: 95° C. for 3 seconds, 60° C. for 20 seconds. Primer sequences for specific Sybr green PCR was performed with human specific primers (Table 5). Taqman PCR primer/probe combinations (Applied Biosystems) were used in the in vitro osteogenesis assays.
Statistical Analysis. Experiments were carried out in triplicate. The error bars represent the standard error of the mean when cells from multiple donors are used. Standard deviations are shown when experiments are performed with a hPDC cell pool (n=3). Statistical comparison between experimental conditions was performed with a Mann-Whitney U test. A p-value ≦0.05 was considered as being statistically significant.
On the technique in general: Real-time PCR tracks product formation cycle by cycle.

The test system is the same in assay [3]. In words: Alkaline phosphatase activity / ALP staining in hPDCs. On the procedure:
(§1) FIG. 8: A) Identification of factors that drive proliferation of hPDCs. A cell pool of hPDCs was either treated with growth medium (GM, negative control), medium containing eight factors (all factors) or medium containing eight minus one factor for 8 days. The factors are osteogenic medium (OM), calcium ions (Ca, 6 mM), phosphate ions (Pi, 4 mM), TNFα (50 ng/ml), IL6 (10 ng/ml), Wnt3A (50 ng/ml), EGF (20 ng/ml), and TGFβ1 (10 ng/ml). Proliferation is expressed as population doublings and was measured after 8 days after stimulation (n=3, error bars: standard deviation). The horizontal line is a reference line set on the proliferation in the “all factor” condition. B) Identification of factors that drive alkaline phosphatase activity in hPDCs. The percentage alkaline positive cells is used as a metric for early osteoblast differentiation.
FIG. 9: Gene expression of early (A) and late (B) bone markers in hPDCs treated with GM, OM or GM/OM supplemented with a growth factor mix (GF) containing TNFα, EGF, TGFβ1 and IL6. […]
Cell culture. […] For in vitro osteogenic differentiation assays, passage 6 to passage 9 hPDCs (pool of four different donors) were seeded at 3000 cells/cm^2 in either 96-well plates to assess proliferation and alkaline phosphatase activity or in the middle eight wells of a 24-well plate for quantifying gene expression. […]

Assay [4] has the same test system. In words: Proliferation of hPDCs in 2D culture (population doublings). The conditions noted are these: 8 days, eight factors minus one. As for the experimental part:
as §1
Cell culture. Periosteum was harvested from four patients (male/female/age) and periosteal cells were enzymatically released from the matrix. […] For in vitro osteogenic differentiation assays, passage 6 to passage 9 hPDCs (pool of four different donors) were seeded at 3000 cells/cm^2 in either 96-well plates to assess proliferation and alkaline phosphatase activity or in the middle eight wells of a 24-well plate for quantifying gene expression. […]

Where [5] appears, read: two stage protocol, six factors minus one, 4 days.

As to `O=C1O[C@H]([C@@H](O)CO)C(O)=C1O` [ascorbic acid, reference compound], the mineralization entry in assay [1] was “promoted”. For the same compound, in assay [2] (setting [5]), the “RANKL expression in medium devoid of the factor” value (shortened to “RANKL expression”) was “lower levels” and the “RUNX2 gene expression when the factor was omitted from the mix” value is reported as “decreased”. The “ALP activity (staining)” value in assay [3] (hPDCs after OM and TGFβ1 one week, then GM with factor 2 days) is “promoted”.
Regarding `[Ca]` [calcium], the “iBSP mRNA levels” value in assay [2] is on record as “decreased”. The “role in DLX5 transcription” value in assay [2] (setting [5]) is “required”.
Take IL6: cytokine ligand, 10 ng/ml: the “RANKL expression” value in assay [2] (setting [5]) is “lower levels”.
Consider TGFβ1: growth factor ligand, 10 ng/ml, for which, in assay [3] (hPDCs, 8 days, eight factors minus one), the “effect on ALP activity (leave-one-out)” value is reported as “strong inducers”. Moreover, the “effect on proliferation (leave-one-out)” value in assay [4] is recorded as “strong inducers”.
For TNFα, in assay [2] (setting [5]), the “RANKL expression” value was “lower levels”; the “effect on osteogenic differentiation” value is “strong inhibitor”; the “expression levels of OSX, iBSP and OC when the factor was removed from the cocktail” value was “enhanced”.
For the compound phosphate, the “iBSP mRNA levels” value in assay [2] was “decreased”. The “role in DLX5 transcription” value in assay [2] (setting [5]) is recorded as “required”.
